Results: patent US4225593A, “Growth promotion” (Imperial Chemical Industries Limited, priority 1977, dated 1980)

Key:
rumen fluid = assay: Inhibition of methane production and shift of volatile fatty acids in incubated rumen fluid (in vitro fermentation of hay); parameters: species or system steers; settings: for % inhibition of methane / Ac/Bu, expressed as percentage of untreated controls / Ac/Pr, expressed as percentage of untreated controls: relative to untreated controls; for Ac/Bu, expressed as percentage of untreated controls / Ac/Pr, expressed as percentage of untreated controls: signed values; for % methane in total gas: 39° C., 15-16 hours, control 8.37; for Ac/Bu: acetate/butyrate, control 3.92; for Ac/Pr: acetate/propionate, control 1.90
Procedure: Rumen fluid is collected on a regular routine basis from two steers, which are fed on the same hay-plus-concentrate diet. Sampling time is standarised as far as possible, and the fluid from the two animals is pooled on a 50/50 basis. Large particulate matter is removed by filtering the pooled fluid through four layers of muslin cloth. The filtrate is then diluted in the ratio of one volume of filtrate to three volumes of an artificial rumen fluid (prepared as described by G. L. Bales et al., Journal of Diary Science, 1976, volume 59, page 1850, but omitting acetic acid), and the pH of the mixture is adjusted to 6.9-7.0 with saturated aqueous sodium carbonate solution. Aliquots (50 ml.) of this mixture are dispensed into 100 ml. conical flasks containing dried ground hay (0.5 g.), and each flask is used to test a test compound at a particular concentration.
The test compound is added to the conical flask as a solution in ethanol, the flask is flushed with carbon dioxide gas, stoppered with a suba-seal, and incubated at 39° C. for 15-16 hours. After one hour, a narrow bore needle is inserted through the suba-seal to relieve the gas pressure, and the needle is withdrawn 30 minutes before the incubation is ended. Fermentation is then stopped by placing the flask in ice, and after 15 minutes cooling, the gas over the liquid is analysed for methane by gas chromatrography. The flask contents are then filtered through a previously dried and weighed sintered glass funnel, the funnel is oven-dried and, by difference, the weight of hay digested is determined. (Blank flasks containing no hay are treated similarly to determine non-cellulose residue). Three samples of the filtrate are analysed by gas chromatography for VFAs, and by comparison with the previously determined, pre-incubationlevel of VFAs, the net VFAs (acetate, propionate and butyrate) produced during the incubation is determined.
The test process described in Example 2 was repeated, comparing aplasmomycin with Factor B and C. The following results were obtained, expressed as percentages of the values obtained in untreated controls: […]

Eimeria tenella = assay: Anticoccidial activity: preventing coccidial growth in cultures of chick kidney cells inoculated with sporozites; type: cell-based; settings: for anticoccidial activity (in words): cultures of chick kidney cells
[1] = system: rumen metabolism of sheep; assay: Short term effects on the rumen metabolism of sheep (rumen V.F.A. composition); type: in vivo; settings: 6 hours after treatment
Procedure: The rumen fermentation patterns of a group of sheep were stabilised by feeding them a standard diet of dried grass (2×500 g. per day) for some months. Six test animals were used for each inclusion level of each test compound. […] Samples of rumen fluid were collected by stomach tube from each animal 6 hours after treatment, and analysed by gas-chromatography for acetate, propionate and butyrate.

chick kidney cells = assay: Toxic effects on the host cells (chick kidney cells) in the anticoccidial test; type: cell-based; settings: only shows toxic effects at this concentration
[2] = Day 4, 0.25 mg/kg, control 10.2
[3] = Day 4, 0.25 mg/kg, control 24.0
[4] = Day 4, 0.25 mg/kg, control 64.5
[5] = Day 7, 0.25 mg/kg, control 10.7
[6] = Day 7, 0.25 mg/kg, control 22.9
[7] = Day 7, 0.25 mg/kg, control 65.6

## CC(=O)OC1C/C=C/C2CC(OC(=O)C3O[B-]45OC(C(=O)OC6CC(/C=C/CC(OC(C)=O)C(C)(C)C7CCC(C)C3(O7)O4)OC6C)C3(OC(CCC3C)C1(C)C)O5)C(C)O2 (centres unmarked) [Factor C]
Rumen fluid; 1 ppm
  % inhibition of methane: 15%
  Ac/Bu, expressed as percentage of untreated controls: +18 percentages
  Ac/Pr, expressed as percentage of untreated controls: -33 percentages
Rumen fluid; 3 ppm
  % inhibition of methane: 44%
  Ac/Bu, expressed as percentage of untreated controls: +22 percentages
  Ac/Pr, expressed as percentage of untreated controls: -41 percentages
Eimeria tenella
  anticoccidial activity (in words): show anticoccidial activity

## CC(=O)OC1C/C=C/C2CC(OC(=O)C3O[B-]45OC(C(=O)OC6CC(/C=C/CC(O)C(C)(C)C7CCC(C)C3(O7)O4)OC6C)C3(OC(CCC3C)C1(C)C)O5)C(C)O2 (centres unmarked) [Factor B]
Rumen fluid; 1 ppm
  % inhibition of methane: 63%
  Ac/Bu, expressed as percentage of untreated controls: +21 percentages
  Ac/Pr, expressed as percentage of untreated controls: -48 percentages
Rumen fluid; 3 ppm
  % inhibition of methane: 76%
  Ac/Bu, expressed as percentage of untreated controls: -18 percentages
  Ac/Pr, expressed as percentage of untreated controls: -45 percentages
[1]; [2]
  Molar % rumen V.F.A.: Butyrate: 11.3 Molar %
[1]; [3]
  Molar % rumen V.F.A.: Propionate: 22.3 Molar %
[1]; [4]
  Molar % rumen V.F.A.: Acetate: 65.1 Molar %
[1]; Day 4, 0.5 mg/kg, control 10.2
  Molar % rumen V.F.A.: Butyrate: 11.3 Molar %
[1]; Day 4, 0.5 mg/kg, control 24.0
  Molar % rumen V.F.A.: Propionate: 22.4 Molar %
[1]; Day 4, 0.5 mg/kg, control 64.5
  Molar % rumen V.F.A.: Acetate: 65.0 Molar %
[1]; [5]
  Molar % rumen V.F.A.: Butyrate: 11.7 Molar %
[1]; [6]
  Molar % rumen V.F.A.: Propionate: 22.1 Molar %
[1]; [7]
  Molar % rumen V.F.A.: Acetate: 63.5 Molar %
[1]; Day 7, 0.5 mg/kg, control 10.7
  Molar % rumen V.F.A.: Butyrate: 8.9 Molar %
[1]; Day 7, 0.5 mg/kg, control 22.9
  Molar % rumen V.F.A.: Propionate: 25.9 Molar %
[1]; Day 7, 0.5 mg/kg, control 65.6
  Molar % rumen V.F.A.: Acetate: 63.5 Molar %
Eimeria tenella
  anticoccidial activity (in words): show anticoccidial activity

## CC[C@@]1([C@@H]2O[C@@H]([C@H]3O[C@@](O)(CO)[C@H](C)C[C@@H]3C)C[C@@H]2C)CC[C@H]([C@]2(C)CC[C@]3(C[C@H](O)[C@@H](C)[C@@H]([C@@H](C)[C@@H](OC)[C@H](C)C(=O)O)O3)O2)O1 [Monensin, monensin, reference compound]
Rumen fluid; 0.1 μg./ml.
  % methane in total gas: 8.35%
  Ac/Bu: 4.22
  Ac/Pr: 1.80
Rumen fluid; 0.3 μg./ml.
  % methane in total gas: 7.53%
  Ac/Bu: 4.11
  Ac/Pr: 1.65
Rumen fluid; 0.5 μg./ml.
  % methane in total gas: 6.75%
  Ac/Bu: 4.03
  Ac/Pr: 1.61
Rumen fluid; 1 μg./ml.
  % methane in total gas: 5.62%
  Ac/Bu: 3.21
  Ac/Pr: 1.51
Rumen fluid; 3 μg./ml.
  % methane in total gas: 4.53%
  Ac/Bu: 3.39
  Ac/Pr: 1.54
[1]; [2]
  Molar % rumen V.F.A.: Butyrate: 9.9 Molar %
[1]; [3]
  Molar % rumen V.F.A.: Propionate: 28.5 Molar %
[1]; [4]
  Molar % rumen V.F.A.: Acetate: 60.5 Molar %
[1]; Day 4, 0.5 mg/kg, control 10.2
  Molar % rumen V.F.A.: Butyrate: 11.3 Molar %
[1]; Day 4, 0.5 mg/kg, control 24.0
  Molar % rumen V.F.A.: Propionate: 27.8 Molar %
[1]; Day 4, 0.5 mg/kg, control 64.5
  Molar % rumen V.F.A.: Acetate: 59.8 Molar %
[1]; [5]
  Molar % rumen V.F.A.: Butyrate: 11.4 Molar %
[1]; [6]
  Molar % rumen V.F.A.: Propionate: 26.1 Molar %
[1]; Day 7, 0.5 mg/kg, control 10.7
  Molar % rumen V.F.A.: Butyrate: 12.6 Molar %
[1]; Day 7, 0.5 mg/kg, control 22.9
  Molar % rumen V.F.A.: Propionate: 26.2 Molar %
[1]; Day 7, 0.5 mg/kg, control 65.6
  Molar % rumen V.F.A.: Acetate: 60.2 Molar %

## C[C@@H]1CC[C@@H]2O[C@]13O[B-]14O[C@H]3C(=O)O[C@H]3C[C@@H](/C=C/C[C@@H](O)C(C)(C)[C@@H]5CC[C@@H](C)[C@](O5)(O1)[C@@H](O4)C(=O)O[C@H]1C[C@@H](/C=C/C[C@@H](O)C2(C)C)O[C@@H]1C)O[C@@H]3C.[Na+] [Aplasmomycin, aplasmomycin]
Rumen fluid; 0.1 μg./ml.
  % methane in total gas: 7.87%
  Ac/Bu: 4.22
  Ac/Pr: 1.63
Rumen fluid; 0.3 μg./ml.
  % methane in total gas: 5.72%
  Ac/Bu: 4.75
  Ac/Pr: 1.36
Rumen fluid; 0.5 μg./ml.
  % methane in total gas: 4.87%
  Ac/Bu: 4.56
  Ac/Pr: 1.29
Rumen fluid; 1 μg./ml.
  % methane in total gas: 3.81%
  Ac/Bu: 4.26
  Ac/Pr: 1.26
Rumen fluid; 3 μg./ml.
  % methane in total gas: 2.58%
  Ac/Bu: 3.52
  Ac/Pr: 1.34
Rumen fluid; 1 ppm
  % inhibition of methane: 57%
  Ac/Bu, expressed as percentage of untreated controls: -36 percentages
  Ac/Pr, expressed as percentage of untreated controls: -41 percentages
Rumen fluid; 3 ppm
  % inhibition of methane: 69%
  Ac/Bu, expressed as percentage of untreated controls: -49 percentages
  Ac/Pr, expressed as percentage of untreated controls: -40 percentages
Rumen fluid; rumen fluid, weight of hay digested
  effect on the overall digestive process (in words): without at the same time depressing the overall digestive process
[1]; [2]
  Molar % rumen V.F.A.: Butyrate: 9.8 Molar %
[1]; [3]
  Molar % rumen V.F.A.: Propionate: 25.1 Molar %
[1]; [4]
  Molar % rumen V.F.A.: Acetate: 63.7 Molar %
[1]; Day 4, 0.5 mg/kg, control 10.2
  Molar % rumen V.F.A.: Butyrate: 9.9 Molar %
[1]; Day 4, 0.5 mg/kg, control 24.0
  Molar % rumen V.F.A.: Propionate: 25.5 Molar %
[1]; Day 4, 0.5 mg/kg, control 64.5
  Molar % rumen V.F.A.: Acetate: 63.4 Molar %
[1]; [5]
  Molar % rumen V.F.A.: Butyrate: 9.9 Molar %
[1]; [6]
  Molar % rumen V.F.A.: Propionate: 24.8 Molar %
[1]; [7]
  Molar % rumen V.F.A.: Acetate: 63.8 Molar %
[1]; Day 7, 0.5 mg/kg, control 10.7
  Molar % rumen V.F.A.: Butyrate: 9.2 Molar %
[1]; Day 7, 0.5 mg/kg, control 22.9
  Molar % rumen V.F.A.: Propionate: 26.6 Molar %
[1]; Day 7, 0.5 mg/kg, control 65.6
  Molar % rumen V.F.A.: Acetate: 62.6 Molar %
Eimeria tenella
  anticoccidial activity (in words): show anticoccidial activity
Eimeria tenella; cultures of chick kidney cells inoculated with sporozites
  concentration showing activity against Eimeria tenella: 0.037 ppm
Chick kidney cells
  concentration showing toxic effects on the host cells: 9 ppm
